Reference: ChEMBL document CHEMBL3997763 (Medchemcomm, 2016)
Calls of active or inactive are those of the source. The rule behind the calls is not given here.

Columns and labels:
Rattus norvegicus [1] = experiment: Hypolipidemic activity in HFD-induced Charles Foster rat chronic hyperlipidemia model assessed as reduction in serum ALT level at 100 mg/kg administered via oral gavage for 30 days simultaneously with high fat diet by colorimetric method relative to HFD treated vehicle; format: functional; details: 720 h
[2] = Apparent oral clearance in Sprague-Dawley rat at 100 mg/kg administered as single dose by LC-MS/MS analysis; format: ADME, organism-based; details: in vivo
[3] = target: T1, 3-hydroxy-3-methylglutaryl-coenzyme A reductase (Homo sapiens) (UniProt P04035); experiment: Inhibition of human HMG-CoA reductase catalytic domain at 20 uM using HMG-CoA as substrate in presence of NADPH by colorimetric method relative to control
T1 sequence (whole entry): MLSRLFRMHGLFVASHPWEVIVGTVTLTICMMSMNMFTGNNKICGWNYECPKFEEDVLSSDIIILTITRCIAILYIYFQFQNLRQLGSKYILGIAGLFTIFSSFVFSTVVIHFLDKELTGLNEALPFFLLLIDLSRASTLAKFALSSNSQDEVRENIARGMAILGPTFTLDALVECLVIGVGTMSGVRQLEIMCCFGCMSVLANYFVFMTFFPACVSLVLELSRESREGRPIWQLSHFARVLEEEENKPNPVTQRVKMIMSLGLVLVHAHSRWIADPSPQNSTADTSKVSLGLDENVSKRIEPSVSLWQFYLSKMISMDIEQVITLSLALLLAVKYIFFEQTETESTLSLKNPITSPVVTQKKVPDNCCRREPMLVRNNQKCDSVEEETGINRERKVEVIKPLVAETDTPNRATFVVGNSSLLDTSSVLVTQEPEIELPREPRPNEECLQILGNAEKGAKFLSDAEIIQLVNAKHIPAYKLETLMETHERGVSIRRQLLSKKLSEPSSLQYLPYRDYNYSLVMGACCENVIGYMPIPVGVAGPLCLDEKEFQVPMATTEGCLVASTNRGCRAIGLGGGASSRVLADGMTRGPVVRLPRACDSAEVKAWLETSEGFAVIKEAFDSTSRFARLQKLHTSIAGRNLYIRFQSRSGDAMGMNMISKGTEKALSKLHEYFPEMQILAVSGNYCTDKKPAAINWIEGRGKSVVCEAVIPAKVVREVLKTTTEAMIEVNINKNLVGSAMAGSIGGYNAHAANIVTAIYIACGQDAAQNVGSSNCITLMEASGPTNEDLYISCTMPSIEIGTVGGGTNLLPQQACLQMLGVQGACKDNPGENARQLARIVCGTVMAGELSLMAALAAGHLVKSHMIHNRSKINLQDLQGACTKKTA

Albumin [4] = target: T2, Albumin (Bos taurus, UniProt P02769); experiment: Binding affinity to bovine serum albumin by fluorescence quenching method; format: ADME; details: cattle, isolated protein
T2 sequence (P02769 whole entry): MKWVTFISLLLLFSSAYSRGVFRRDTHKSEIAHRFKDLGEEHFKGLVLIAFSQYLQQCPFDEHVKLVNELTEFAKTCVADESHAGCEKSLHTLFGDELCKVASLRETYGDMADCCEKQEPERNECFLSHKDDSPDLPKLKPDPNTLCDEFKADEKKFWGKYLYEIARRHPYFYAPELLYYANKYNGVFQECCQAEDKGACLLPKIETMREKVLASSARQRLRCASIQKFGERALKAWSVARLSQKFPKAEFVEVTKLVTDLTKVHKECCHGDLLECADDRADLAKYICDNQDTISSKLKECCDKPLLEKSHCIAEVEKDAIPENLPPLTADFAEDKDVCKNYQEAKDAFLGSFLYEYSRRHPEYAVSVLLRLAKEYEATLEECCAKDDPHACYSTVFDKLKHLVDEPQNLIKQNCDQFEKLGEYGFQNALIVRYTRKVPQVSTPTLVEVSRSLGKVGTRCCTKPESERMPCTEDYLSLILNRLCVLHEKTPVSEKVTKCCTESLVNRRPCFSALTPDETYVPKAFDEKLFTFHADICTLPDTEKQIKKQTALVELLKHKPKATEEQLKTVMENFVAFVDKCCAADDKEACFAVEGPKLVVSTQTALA

Rattus norvegicus [5] = experiment: Hypolipidemic activity in HFD-induced Charles Foster rat assessed as increase in lipolytic activity of LPL in liver at 100 mg/kg administered as single dose via oral gavage for 30 days simultaneously with high fat diet; format: functional, organism-based
Rattus norvegicus [6] = experiment: Hypolipidemic activity in HFD-induced Charles Foster rat chronic hyperlipidemia model assessed as reduction in serum triglyceride level at 100 mg/kg administered via oral gavage for 30 days simultaneously with high fat diet by enzymatic method relative to HFD treated vehicle; format: functional; details: 720 h
[7] = target: T1, 3-hydroxy-3-methylglutaryl-coenzyme A reductase (Homo sapiens); experiment: Inhibition of human HMG-CoA reductase catalytic domain at 100 uM using HMG-CoA as substrate in presence of NADPH by colorimetric method relative to control
[8] = Apparent oral volume of distribution in Sprague-Dawley rat at 100 mg/kg administered as single dose by LC-MS/MS analysis; format: ADME, organism-based; details: in vivo
[9] = Tmax in Sprague-Dawley rat at 100 mg/kg, po administered as single dose by LC-MS/MS analysis; format: ADME, organism-based; details: in vivo
[10] = AUC (0 to infinity) in Sprague-Dawley rat at 100 mg/kg, po administered as single dose by LC-MS/MS analysis; format: ADME, organism-based; design: dose 100 mg/kg, time infinity, route oral; details: in vivo
Rattus norvegicus [11] = species on record: Rattus norvegicus; experiment: animal or person; format: functional; details: Charles Foster, po, 18 h
Description: Antihyperlipidemic activity in triton WR-1339 induced Charles Foster rat hyperlipidemia model assessed as inhibition of total cholesterol level in serum at 100 mg/kg, po administered simultaneously with triton WR-1339 after 18 hrs by enzymatic method relative to control

Rattus norvegicus [12] = species on record: Rattus norvegicus; experiment: animal or person; format: functional; details: Charles Foster, po, 18 h; remark: listed apart in the source
Description: Antihyperlipidemic activity in triton WR-1339 induced Charles Foster rat hyperlipidemia model assessed as inhibition of phospholipid level in serum at 100 mg/kg, po administered simultaneously with triton WR-1339 after 18 hrs by enzymatic method relative to control

[13] = target: T1, 3-hydroxy-3-methylglutaryl-coenzyme A reductase (Homo sapiens); experiment: Inhibition of human HMG-CoA reductase catalytic domain at 1 uM using HMG-CoA as substrate in presence of NADPH by colorimetric method relative to control
Rattus norvegicus [14] = experiment: Antihyperlipidemic activity in po dosed triton WR-1339 induced Charles Foster rat hyperlipidemia model assessed as inhibition of total cholesterol level in serum administered simultaneously with triton WR-1339 after 18 hrs by enzymatic method relative to control; format: functional, organism-based
Rattus norvegicus [15] = species on record: Rattus norvegicus; experiment: animal or person; format: functional; details: Charles Foster, po, 18 h; remark: listed apart in the source
Description: Antihyperlipidemic activity in triton WR-1339 induced Charles Foster rat hyperlipidemia model assessed as inhibition of triglyceride level in serum at 100 mg/kg, po administered simultaneously with triton WR-1339 after 18 hrs by enzymatic method relative to control

Rattus norvegicus [16] = experiment: Antihyperlipidemic activity in po dosed triton WR-1339 induced Charles Foster rat hyperlipidemia model assessed as increase in HDL-C level in serum administered simultaneously with triton WR-1339 after 18 hrs by enzymatic method relative to control; format: functional, organism-based
Rattus norvegicus [17] = experiment: Hypolipidemic activity in HFD-induced Charles Foster rat chronic hyperlipidemia model assessed as increase in fecal excretion of deoxycholic acid at 100 mg/kg administered via oral gavage for 30 days simultaneously with high fat diet by enzymatic method relative to HFD treated vehicle; format: functional
Rattus norvegicus [18] = experiment: Antihyperlipidemic activity in triton WR-1339 induced Charles Foster rat hyperlipidemia model assessed as inhibition of phospholipid level in serum at 150 mg/kg, po administered simultaneously with triton WR-1339 after 18 hrs by enzymatic method relative to control; format: functional
Rattus norvegicus [19] = experiment: Antihyperlipidemic activity in triton WR-1339 induced Charles Foster rat hyperlipidemia model assessed as increase in HDL-C level in serum at 50 mg/kg, po administered simultaneously with triton WR-1339 after 18 hrs by enzymatic method relative to control; format: functional
[20] = Apparent MRT in Sprague-Dawley rat at 100 mg/kg, po administered as single dose by LC-MS/MS analysis; format: ADME, organism-based; details: in vivo
Rattus norvegicus [21] = experiment: Hypolipidemic activity in HFD-induced Charles Foster rat assessed as reduction in serum VLDL-TG at 100 mg/kg administered as single dose via oral gavage for 30 days simultaneously with high fat diet; format: functional, organism-based
Rattus norvegicus [22] = experiment: Antihyperlipidemic activity in triton WR-1339 induced Charles Foster rat hyperlipidemia model assessed as inhibition of triglyceride level in serum at 50 mg/kg, po administered simultaneously with triton WR-1339 after 18 hrs by enzymatic method relative to control; format: functional
Rattus norvegicus [23] = experiment: Hypolipidemic activity in HFD-induced Charles Foster rat assessed as increase in serum HDL-TG at 100 mg/kg administered as single dose via oral gavage for 30 days simultaneously with high fat diet; format: functional, organism-based
Rattus norvegicus [24] = experiment: Antihyperlipidemic activity in HFD-induced Charles Foster rat chronic hyperlipidemia model assessed as body weight at 100 mg/kg administered via oral gavage for 30 days simultaneously with high fat diet (reference value: 263.52 +/- 21.56 g); format: functional
Rattus norvegicus [25] = experiment: Antihyperlipidemic activity in triton WR-1339 induced Charles Foster rat hyperlipidemia model assessed as increase in HDL-C level in serum at 100 mg/kg, po administered simultaneously with triton WR-1339 after 18 hrs by enzymatic method relative to control; format: functional
Albumin [26] = target: T2, Albumin; experiment: Binding affinity to bovine serum albumin by absorption spectroscopic method; format: ADME; details: cattle, isolated protein

COc1ccc(-c2cc3cc(C(c4c[nH]c5ccccc45)c4c[nH]c5ccccc45)cc(C(C)(C)C)c3oc2=O)cc1OC
inhibition in vivo at 100 mg/kg (Rattus norvegicus [1]): 26%
CL/F [2]: 241 L/h/kg
inhibition [3]: 63%
Activity (Albumin [4]): Active
Activity (Rattus norvegicus [5]): Active
inhibition in vivo at 100 mg/kg (Rattus norvegicus [6]): 26%
inhibition [7]: 81%
Vd/F [8]: 684 L/kg
Tmax [9]: 4 h
AUC(0-inf) [10]: 417 ng·h/mL
inhibition in vivo at 100 mg/kg (Rattus norvegicus [11]): 32%
inhibition in vivo at 100 mg/kg (Rattus norvegicus [12]): 33%
inhibition [13]: 19%
inhibition (Rattus norvegicus [14]): Dose-dependent effect
inhibition in vivo at 100 mg/kg (Rattus norvegicus [15]): 33%
Activity (Rattus norvegicus [16]): Dose-dependent effect
Activity (Rattus norvegicus [17]): 39%
inhibition in vivo at 150 mg/kg (Rattus norvegicus [18]): 35%
Activity (Rattus norvegicus [19]): 15%
MRT [20]: 4.46 h
Activity (Rattus norvegicus [21]): Active
inhibition in vivo at 50 mg/kg (Rattus norvegicus [22]): 20%
Activity (Rattus norvegicus [23]): Active
Activity (Rattus norvegicus [24]): 228.19 g
Activity (Rattus norvegicus [25]): 23%
Activity (Albumin [26]): Active
